# Patent publication US7220751B2, “Quinazoline derivatives and drugs” (Nippon Shinyaku Co., Ltd., priority 2001, dated 2007)
# Structures can show the parent of a compound that is named as a salt. Marks after values point to notes of the source that are not given here.
# How the values were obtained:
# [1] = target: T1, human μ receptor (Homo sapiens, UniProt P35372); experiment: μ receptor binding test ([3H]-diprenorphine); conditions: human μ receptor expressing cell membrane preparation; 0.13 nM [3H]-diprenorphine; 25° C., 90 minutes; read-out: μ preceptor Ki
# T1 construct: purchased Receptor Biology, Inc
# T1 sequence (P35372 whole entry): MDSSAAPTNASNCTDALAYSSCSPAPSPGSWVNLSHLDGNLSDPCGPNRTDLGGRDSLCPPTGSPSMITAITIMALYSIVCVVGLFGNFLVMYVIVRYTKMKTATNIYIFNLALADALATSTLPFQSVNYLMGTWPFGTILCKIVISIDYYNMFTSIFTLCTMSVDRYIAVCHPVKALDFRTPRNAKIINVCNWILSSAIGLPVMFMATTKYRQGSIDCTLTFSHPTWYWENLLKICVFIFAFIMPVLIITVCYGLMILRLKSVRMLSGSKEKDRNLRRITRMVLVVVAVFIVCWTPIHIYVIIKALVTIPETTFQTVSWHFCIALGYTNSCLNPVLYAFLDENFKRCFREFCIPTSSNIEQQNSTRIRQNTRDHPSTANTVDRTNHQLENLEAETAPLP
# Protocol: A nociceptin receptor is a member of an opioid receptor family. An inventive compound was examined for its binding capacity to a μ receptor which is also a member of an opioid receptor family and which is involved in an analgesic effect and a dependency, and compared with the binding capacity to the nociceptin receptor.
# A human μ receptor expressing cell membrane preparation (Receptor Biology, Inc) was adjusted at the protein concentration of 8.5 μg/ml using a Tris-buffer solution [50 mM Tris-HCl (pH 7.8), 5 mM MgCl2, 1 mM EGTA, 0.1% BSA]. The solution incubated with [^3H]-diprenorphine (diluted at the final concentration of 0.13 nM using Tris-buffer) and a test compound at 25° C. for 90 minutes. The membrane was recovered using a cell harvester onto a GF/B filter which had previously been treated with 0.3% PEI, and then washed further 4 times with a washing solution [50 mM Tris-HCl (pH 7.8), 4° C.]. The filter was transferred into a counting vial. Adequate amount of scintillator was added and the radioactivity was measured using a liquid scintillation counter. A non-specific binding was regarded as a binding of [^3H]-diprenorphine in the presence of 100 μM naloxone, and a specific binding was regarded as the difference between the total binding and the non-specific binding. Based on the % binding inhibition in the presence of the test compound, an IC50 value was determined, and used together with the Kd value of [^3H]-diprenorphine for calculating the Ki value of the test compound.
# [2] = Mouse formalin test; type: in vivo; conditions: male ddy mouse, 30 mg/kg subcutaneously 15 min before 1% formalin, mean
# Protocol: A male ddy strain mouse (4 to 5 weeks old) was kept at a temperature of 21 to 25° C. and a humidity of 45 to 65% in a breeding room under the conditions of a constant lighting cycle (light: 12 hours, dark: 12 hours) while allowing the animal to access a feed and water ad libitum, whereby acclimatizing the animal over a period of 1 week or longer. Each 6 to 7 animals were assigned to each group.
# After the mouse was acclimatized to an observation cage sufficiently, it was treated with a test compound, and then after 15 minutes 20 μl of 1% formalin solution was given subcutaneously to a hind limb. The test compound was dissolved in a saline, and immediately given to the mouse subcutaneously at the dose of 0.1 ml per 10 g body weight using a 27G needle. A control group received the physiological saline. The animals were returned to their observation cages, and examined for the duration of the aversive responses such as licking or biting the posterior limb using a stopwatch over a period of 30 minutes.
# The significance of the difference was analyzed by the one-way layout analysis of variance between the control group and a treatment group followed by Dunnett's multiple comparison.
# [3] = target: T2, human nociceptin receptor (Homo sapiens, UniProt P41146); experiment: Nociceptin receptor binding test ([3H]-nociceptin); conditions: membranes of human nociceptin receptor expressing cell; 0.08 nM [3H]-nociceptin; 25° C., 60 minutes
# T2 construct: expressed in transfected cells
# T2 sequence (P41146 whole entry): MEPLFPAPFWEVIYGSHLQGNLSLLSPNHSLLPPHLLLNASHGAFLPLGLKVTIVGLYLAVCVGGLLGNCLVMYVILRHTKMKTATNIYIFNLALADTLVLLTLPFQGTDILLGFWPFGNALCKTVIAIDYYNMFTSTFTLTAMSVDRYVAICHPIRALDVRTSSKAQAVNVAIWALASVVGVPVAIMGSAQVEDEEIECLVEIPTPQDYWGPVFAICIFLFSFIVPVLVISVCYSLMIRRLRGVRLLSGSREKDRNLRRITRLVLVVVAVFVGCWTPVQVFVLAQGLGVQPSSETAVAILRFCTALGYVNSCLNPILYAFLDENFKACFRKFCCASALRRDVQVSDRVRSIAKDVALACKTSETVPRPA
# Protocol: Nociceptin Receptor Binding Test
# A suspension of cell membrane obtained from a human nociceptin receptor expressing cell was adjusted at a protein concentration of 5 to 10 μg/ml using a Tris-buffer solution [50 mM Tris-HCl (pH 7.8), 5 mM MgCl2, 1 mM EGTA, 0.1% BSA]. The solution was incubated with [^3H]-nociceptin (diluted at the final concentration of 0.08 nM using Tris-buffer) and a test compound at 25° C. for 60 minutes. The membrane was recovered using a cell harvester onto a glass fiber (GF) filter GF/B which had previously been treated with 0.3% polyethyleneimine (PEI), and then washed further 4 times with a washing solution[50 mM Tris-HCl (pH 7.8), 4° C.]. The filter was transferred into a counteing vial. Adequate amount of scintillator was added to the vial and the radioactivity was measured using a liquid scintillation counter. A non-specific binding was regarded as a binding of [^3H]-nociceptin in the presence of 10 μM nociceptin, and a specific binding was regarded as the difference between the total binding and the non-specific binding. Based on the % binding inhibition in the presence of the test compound, an IC50 value was determined, and used together with the Kd value of [^3H]-nociceptin for calculating the Ki value of the test compound.
# [4] = 0~10 min after formalin treatment (phase 1)
# [5] = 10~30 min after formalin treatment (phase 2)
Compound,Ki [1] [nM],Ki [3] [nM],"Duration of the abersive response [2, 4]","Duration of the abersive response [2, 5]"
"Cc1ccc2nc(C=Cc3ccccn3)nc(N[C@H]3CC[C@@H](N)CC3)c2c1.Cl.Cl.Cl [Example 40, cis-4-{6-methyl-2-[2-(2-pyridyl)ethenyl]quinazolin-4-yl}aminocyclohexylamine Trihydrochloride]",288,18,64.5** sec,77.6* sec
"Cc1ccc2nc(C=Cc3ccc(Cl)cc3)nc(N[C@H]3CC[C@@H](N)CC3)c2c1 [Example 22, cis-4-[2-(4-chlorostyryl)-6-methylquinazolin-4-yl]aminocyclohexylamine dihydrochloride]",313,29,–,–
"COc1ccc2nc(C=Cc3ccccn3)nc(N[C@H]3CC[C@@H](N)CC3)c2c1 [Example 44, cis-4-{6-methoxy-2-[2-(2-pyridyl)ethenyl]quinazolin-4-yl}aminocyclohexylamine Trihydrochloride]",492,23,–,–
"COc1ccc2nc(C=Cc3ccc(Cl)cc3)nc(N[C@H]3CCCC[C@H]3N)c2c1 (relative stereo) [Example 25, cis-2-[2-(4-chlorostyryl)-6-methoxyquinazolin-4-yl]aminocyclohexylamine dihydrochloride]",204,110,–,–
"Cc1ccc2nc(C=Cc3cccc(C)n3)nc(NC3CCC(N)CC3C)c2c1.Cl.Cl.Cl (stereo not drawn) [Example 52, cis-4-amino-cis-2-methyl-N-{6-methyl-2-[2-(6-methyl-2-pyridyl)ethenyl]quinazolin-4-yl}cyclohexylamine Trihydrochloride]",–,–,79.4** sec,77.0** sec

# Continued, in another order:
Ki [1] [nM],Ki [3] [nM],Compound,"Duration of the abersive response [2, 4]","Duration of the abersive response [2, 5]"
234,2,"Cc1ccc2nc(C=Cc3ccccn3)nc(N[C@H]3CC[C@@H](N)C[C@H]3C)c2c1 [Example 58, (1S, 2R, 4R)-4-amino-2-methyl-N-{6-methyl-2-[2-(2-pyridyl)ethenyl]quinazolin-4-yl}cyclohexylamine Trihydrochloride]",–,–
207,4,"Cc1ccc2nc(C=Cc3ccccn3)nc(N[C@@H]3CC[C@H](N)C[C@@H]3C)c2c1 (relative stereo) [Example 1, cis-4-amino-cis-2-methyl-N-{6-methyl-2-[2-(2-pyridyl)ethenyl]quinazolin-4-yl}cyclohexylamine Trihydrochloride]",47.5** sec,74.5* sec
284,42,"Cc1ccc2nc(C=Cc3ccccn3)nc(N[C@@H]3CC[C@H](N)C[C@@H]3C)c2c1 [Example 57, (1R, 2S, 4S)-4-amino-2-methyl-N-{6-methyl-2-[2-(2-pyridyl)ethenyl]quinazolin-4-yl}cyclohexylamine Trihydrochloride]",–,–
206,6,"COc1ccc2nc(C=Cc3ccccn3)nc(N[C@@H]3CC[C@H](N)C[C@@H]3C)c2c1 (relative stereo) [Example 51, cis-4-amino-cis-2-methyl-N-{6-methoxy-2-[2-(2-pyridyl)ethenyl]quinazolin-4-yl}cyclohexylamine Trihydrochloride]",–,–
